Columns and labels:
Assay type in all cases: cell-based
[1] = test system: panel of 60 human tumor cell lines; test: NCI 60-cell line one-dose screen (mean); conditions: mean of the 60 cell lines, single dose 10^−5 M, read-out: Mean % Growth Inhibition
Method in brief: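 Each cell line in the NCI DTP 60-line human tumor panel received one compound concentration, 10^−5 M. Activity is expressed as percent inhibition.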

[2] = test system: A549/ATCC; test: NCI-60 one-dose screen; conditions: Homo sapiens, Non-small cell lung panel, single dose 10^−5 M, read-out: Growth inhibition %
[3] = test system: ACHN; test: NCI-60 one-dose screen; conditions: Homo sapiens, Renal Cancer panel, single dose 10^−5 M, read-out: Growth inhibition %
[4] = test system: CAKI-1; test: NCI-60 one-dose screen; conditions: Homo sapiens; CAKI-1, Renal Cancer panel; single dose 10^−5 M; read-out: Growth inhibition %
[5] = test system: COLO 205; test: NCI-60 one-dose screen; conditions: Homo sapiens; COLO 205, Colon Cancer panel; single dose 10^−5 M; read-out: Growth inhibition %
[6] = test system: DU-145; test: NCI-60 one-dose screen; conditions: Homo sapiens; DU-145, Prostate Cancer panel; single dose 10^−5 M; read-out: Growth inhibition %
[7] = test system: HCC-2998; test: NCI-60 one-dose screen; conditions: Homo sapiens; HCC-2998, Colon Cancer panel; single dose 10^−5 M; read-out: Growth inhibition %
[8] = test system: HOP-62; test: NCI-60 one-dose screen; conditions: Homo sapiens; HOP-62, Non-small cell lung panel; single dose 10^−5 M; read-out: Growth inhibition %
[9] = test system: HOP-92; test: NCI-60 one-dose screen; conditions: Homo sapiens; HOP-92, Non-small cell lung panel; single dose 10^−5 M; read-out: Growth inhibition %
[10] = test system: K-562; test: NCI-60 one-dose screen; conditions: Homo sapiens, K562; K-562, Leukemia panel; single dose 10^−5 M; read-out: Growth inhibition %
[11] = test system: MDA-MB-231/ATCC; test: NCI-60 one-dose screen; conditions: Homo sapiens, Breast Cancer panel, single dose 10^−5 M, read-out: Growth inhibition %
[12] = test system: MDA-MB-435; test: NCI-60 one-dose screen; conditions: Homo sapiens; MDA-MB-435, Melanoma panel; single dose 10^−5 M; read-out: Growth inhibition %
[13] = test system: NCI-H226; test: NCI-60 one-dose screen; conditions: Homo sapiens; NCI-H226, Non-small cell lung panel; single dose 10^−5 M; read-out: Growth inhibition %
[14] = test system: NCI-H23; test: NCI-60 one-dose screen; conditions: Homo sapiens; NCI-H23, Non-small cell lung panel; single dose 10^−5 M; read-out: Growth inhibition %
[15] = test system: NCI/ADR-RES; test: NCI-60 one-dose screen; conditions: Homo sapiens, Ovarian Cancer panel, single dose 10^−5 M, read-out: Growth inhibition %
[16] = test system: OVCAR-3; test: NCI-60 one-dose screen; conditions: Homo sapiens; OVCAR-3, Ovarian Cancer panel; single dose 10^−5 M; read-out: Growth inhibition %
[17] = test system: OVCAR-4; test: NCI-60 one-dose screen; conditions: Homo sapiens; OVCAR-4, Ovarian Cancer panel; single dose 10^−5 M; read-out: Growth inhibition %
[18] = test system: OVCAR-5; test: NCI-60 one-dose screen; conditions: Homo sapiens; OVCAR-5, Ovarian Cancer panel; single dose 10^−5 M; read-out: Growth inhibition %
[19] = test system: OVCAR-8; test: NCI-60 one-dose screen; conditions: Homo sapiens; OVCAR-8, Ovarian Cancer panel; single dose 10^−5 M; read-out: Growth inhibition %
[20] = test system: RXF 393; test: NCI-60 one-dose screen; conditions: Homo sapiens; RXF 393, Renal Cancer panel; single dose 10^−5 M; read-out: Growth inhibition %
[21] = test system: SF-295; test: NCI-60 one-dose screen; conditions: Homo sapiens; SF-295, CNS Cancer panel; single dose 10^−5 M; read-out: Growth inhibition %
[22] = test system: SK-MEL-2; test: NCI-60 one-dose screen; conditions: Homo sapiens; SK-MEL-2, Melanoma panel; single dose 10^−5 M; read-out: Growth inhibition %
[23] = test system: SK-MEL-5; test: NCI-60 one-dose screen; conditions: Homo sapiens; SK-MEL-5, Melanoma panel; single dose 10^−5 M; read-out: Growth inhibition %
[24] = test system: SK-OV-3; test: NCI-60 one-dose screen; conditions: Homo sapiens; SK-OV-3, Ovarian Cancer panel; single dose 10^−5 M; read-out: Growth inhibition %
[25] = test system: SN12C; test: NCI-60 one-dose screen; conditions: Homo sapiens, Renal Cancer panel, single dose 10^−5 M, read-out: Growth inhibition %
[26] = test system: SNB-19; test: NCI-60 one-dose screen; conditions: Homo sapiens; SNB-19, CNS Cancer panel; single dose 10^−5 M; read-out: Growth inhibition %
[27] = test system: SNB-75; test: NCI-60 one-dose screen; conditions: Homo sapiens; SNB-75, CNS Cancer panel; single dose 10^−5 M; read-out: Growth inhibition %
[28] = test system: T-47D; test: NCI-60 one-dose screen; conditions: Homo sapiens, T47D, Breast Cancer panel, single dose 10^−5 M, read-out: Growth inhibition %
[29] = test system: U251; test: NCI-60 one-dose screen; conditions: Homo sapiens, U-251; U251, CNS Cancer panel; single dose 10^−5 M; read-out: Growth inhibition %
[30] = test system: UACC-62; test: NCI-60 one-dose screen; conditions: Homo sapiens; UACC-62, Melanoma panel; single dose 10^−5 M; read-out: Growth inhibition %
[31] = test system: UO-31; test: NCI-60 one-dose screen; conditions: Homo sapiens; UO-31, Renal Cancer panel; single dose 10^−5 M; read-out: Growth inhibition %

Row | SMILES | inhibition at 10 µM [1] [%] | inhibition at 10 µM [2] [%] | inhibition at 10 µM [3] [%] | inhibition at 10 µM [4] [%] | inhibition at 10 µM [5] [%] | inhibition at 10 µM [6] [%] | inhibition at 10 µM [7] [%] | inhibition at 10 µM [8] [%] | inhibition at 10 µM [9] [%] | inhibition at 10 µM [10] [%] | inhibition at 10 µM [11] [%] | inhibition at 10 µM [12] [%] | inhibition at 10 µM [13] [%] | inhibition at 10 µM [14] [%] | inhibition at 10 µM [15] [%] | inhibition at 10 µM [16] [%] | inhibition at 10 µM [17] [%] | inhibition at 10 µM [18] [%] | inhibition at 10 µM [19] [%] | inhibition at 10 µM [20] [%] | further results
1 | Cc1ccc2nc3ccccc3c(NCc3ccc(Cl)cc3)c2c1 [Compound 31, (4-Chlorobenzyl)-(2-methyl-acridin-9-yl)-amine] | 66.9 | 59.2 | 66.7 | 54.3 | 153 | 48.6 | 179 | 34.8 | 105 | 97.4 | 62.3 | 29.7 | 27.7 | 54 | 58 | 29.1 | 62.5 | 49.3 | 47.6 | 71 | inhibition at 10 µM [21]: 56.3%; inhibition at 10 µM [22]: -1.95%; inhibition at 10 µM [23]: 46%; inhibition at 10 µM [24]: 24.8%; inhibition at 10 µM [25]: 60.5%; inhibition at 10 µM [26]: 49.7%; inhibition at 10 µM [27]: 33.5%; inhibition at 10 µM [28]: 42.1%; inhibition at 10 µM [29]: 74.9%; inhibition at 10 µM [30]: 26%; inhibition at 10 µM [31]: 75.5%
2 | c1ccc(CCNc2c3ccccc3nc3ccccc23)cc1 [Compound 23, Acridin-9-yl-phenethyl-amine] | 60.7 | 67.3 | 78.4 | 69.7 | 78.8 | 62 | 58.6 | 44.9 | 102 | 75 | 56.7 | 44.7 | 43.7 | 61.4 | 66.5 | 29 | 65 | 46.6 | 61.7 | 64.7 | inhibition at 10 µM [21]: 65.1%; inhibition at 10 µM [22]: 13.7%; inhibition at 10 µM [23]: 35.3%; inhibition at 10 µM [24]: 37.4%; inhibition at 10 µM [25]: 66.9%; inhibition at 10 µM [26]: 60.5%; inhibition at 10 µM [27]: 32.4%; inhibition at 10 µM [28]: 51.1%; inhibition at 10 µM [29]: 58.9%; inhibition at 10 µM [30]: 46.8%; inhibition at 10 µM [31]: 75.8%

— paper PMC9866191, “Novel 9-Benzylaminoacridine Derivatives as Dual Inhibitors of Phosphodiesterase 5 and Topoisomerase II for the Treatment of Colon Cancer” (Molecules, 2023)
